Laboratory results published in BigSolDB 2.1.

O=C(O)CCCC(=O)O
Settings | solubility (mole fraction)
in acetic acid, 292.75 K | 0.162
in acetic acid, 297.84 K | 0.183
in acetic acid, 301.3 K | 0.203
in acetic acid, 304.47 K | 0.221
in acetic acid, 307.28 K | 0.241
in acetic acid, 310.19 K | 0.257
in acetic acid, 313.64 K | 0.28
in acetic acid, 316.5 K | 0.302
in acetic acid, 319.05 K | 0.323
in acetic acid, 321.38 K | 0.345
in acetic acid, 325.45 K | 0.373
in acetic acid, 327.38 K | 0.399
in acetic acid, 332.97 K | 0.436
in acetic acid, 335.25 K | 0.478
in acetic acid, 338.05 K | 0.514
in acetic acid, 341.94 K | 0.553
in acetic acid, 344.21 K | 0.585
in acetic acid, 347.24 K | 0.621
in acetic acid, 349.88 K | 0.651
in acetic acid, 353.36 K | 0.712
in cyclohexanol, 299.75 K | 0.205
in cyclohexanol, 302.7 K | 0.219
in cyclohexanol, 305.85 K | 0.234
in cyclohexanol, 308.6 K | 0.25
in cyclohexanol, 313.19 K | 0.271
in cyclohexanol, 316 K | 0.288
in cyclohexanol, 318.55 K | 0.312
in cyclohexanol, 320.55 K | 0.33
in cyclohexanol, 325.15 K | 0.366
in cyclohexanol, 326.5 K | 0.371
in cyclohexanol, 332.55 K | 0.428
in cyclohexanol, 334.9 K | 0.455
in cyclohexanol, 336.3 K | 0.477
in cyclohexanol, 339.75 K | 0.511
in cyclohexanol, 342.15 K | 0.545
in cyclohexanol, 344.8 K | 0.571
in cyclohexanol, 347.19 K | 0.622
in cyclohexanol, 350.05 K | 0.66
in cyclohexanol, 351.93 K | 0.693
in cyclohexanol, 352.48 K | 0.719
in cyclohexanol, 352.95 K | 0.748
in cyclohexanone, 294 K | 0.161
in cyclohexanone, 299.7 K | 0.189
in cyclohexanone, 304.5 K | 0.213
in cyclohexanone, 308.05 K | 0.241
in cyclohexanone, 311.94 K | 0.264
in cyclohexanone, 314.15 K | 0.283
in cyclohexanone, 317.54 K | 0.307
in cyclohexanone, 320.3 K | 0.334
in cyclohexanone, 325.05 K | 0.366
in cyclohexanone, 326.95 K | 0.392
in cyclohexanone, 330.5 K | 0.428
in cyclohexanone, 333.81 K | 0.458
in cyclohexanone, 335.23 K | 0.478
in cyclohexanone, 338.35 K | 0.513
in cyclohexanone, 342.65 K | 0.557
in cyclohexanone, 346.8 K | 0.598
in cyclohexanone, 347.65 K | 0.627
in cyclohexanone, 349.7 K | 0.655
in cyclohexanone, 351.5 K | 0.679
in cyclohexanone, 353.65 K | 0.705
